10 molecules from PubChem BioAssay (NCI) can be followed below.

Test systems include LOX IMVI melanoma; A549 NSCLC; HOP-62 NSCLC; UACC-257 melanoma; K-562 leukemia; HL-60(TB) leukemia; HOP-92 NSCLC; NCI-H226 lung.
Holding throughout (assay): NCI-60 cell line screen, 48 h

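96-well plates; 48 h exposure; 5 concentrations. Endpoints by linear interpolation between flanking doses. Not reached: highest tested concentration assigned. Here, GI50 denotes the concentration required for 50% inhibition of growth. At the TGI there is no net growth.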

Take `O=C(CCc1nnc2sc(-c3ccc(Cl)cc3Cl)nn12)c1nc2ccccc2[nH]1`: the GI50 is 0.233 µM with LOX IMVI melanoma; 1.88 µM with A549 NSCLC; 0.577 µM in the assay on HOP-62 NSCLC; 1830 nM with UACC-257 melanoma; 451 nM with K-562 leukemia; 1240 nM with HL-60(TB) leukemia. For the same molecule, the figures for the GI50 with HOP-92 NSCLC and with NCI-H226 lung were 0.391 µM and 0.663 µM, respectively. The TGI in the assay on LOX IMVI melanoma was determined as 0.671 µM; in the assay on A549 NSCLC, 4.96 µM; in the assay with HOP-62 NSCLC it was 2.12 µM; with UACC-257 melanoma, 4.31 µM; in the assay with K-562 leukemia it was 2.56 µM; in the assay with HL-60(TB) leukemia it was 5.52 µM. Also, the TGI is 1.86 µM with HOP-92 NSCLC and 1.56 µM in the assay with NCI-H226 lung.
In the case of `O=C1CCC(N2C(=O)c3ccccc3C2=O)C(=O)N1CO` (stereo not drawn), the GI50 in the assay on LOX IMVI melanoma is 23.6 µM; with A549 NSCLC, greater than 100 µM; in the assay with HOP-62 NSCLC, greater than 100 µM; with UACC-257 melanoma, 78600 nM; with K-562 leukemia, greater than 100000 nM; in the assay with HL-60(TB) leukemia, 32200 nM. For the same molecule, the figures for the GI50 with HOP-92 NSCLC and with NCI-H226 lung were 25 µM and greater than 100 µM, respectively. For the same molecule, the TGI in the assay on LOX IMVI melanoma was 58 µM; in the assay on A549 NSCLC, greater than 100 µM; in the assay on HOP-62 NSCLC, greater than 100 µM; with UACC-257 melanoma, greater than 100 µM; in the assay on K-562 leukemia, greater than 100 µM; in the assay on HL-60(TB) leukemia, 89.5 µM. Moreover, the TGI in the assay with HOP-92 NSCLC and with NCI-H226 lung was greater than 100 µM throughout.
In the case of `COC1(C)CP(=O)(OC(C)C)CC(C)=C1Cl` (stereo not drawn), the TGI in the assay on LOX IMVI melanoma was 39.4 µM; in the assay on A549 NSCLC it was greater than 100 µM; in the assay on HOP-62 NSCLC, 51.7 µM; in the assay on UACC-257 melanoma, 72.1 µM; in the assay on K-562 leukemia, 7.89 µM; in the assay on HL-60(TB) leukemia it was 29.1 µM. For the same molecule, the TGI in the assay with HOP-92 NSCLC came to 25.6 µM; in the assay on NCI-H226 lung it was 78.2 µM.
Take `C/C(CC(=O)Nc1cc(C)ccc1C)=N\NC(=O)c1ccncc1`: the TGI in the assay with LOX IMVI melanoma, in the assay with A549 NSCLC, in the assay with HOP-62 NSCLC, in the assay with UACC-257 melanoma, with K-562 leukemia and in the assay on HL-60(TB) leukemia was greater than 100 µM each time. In addition, the TGI in the assay with HOP-92 NSCLC and in the assay with NCI-H226 lung was greater than 100 µM each time.
On to `CC(=O)OCC1OC(NC(=S)N/N=C2\CC(c3ccccc3)Oc3ccccc32)C(OC(C)=O)C(OC(C)=O)C1OC(C)=O` (stereo not drawn), for which the TGI with LOX IMVI melanoma, in the assay with A549 NSCLC, with HOP-62 NSCLC, with UACC-257 melanoma, with K-562 leukemia and with HL-60(TB) leukemia was greater than 100 µM throughout. Besides, the TGI in the assay on HOP-92 NSCLC and in the assay on NCI-H226 lung was greater than 100 µM each time.
Take `NC(=O)NS(=O)(=O)c1ccc(N2N=C(C(F)(F)F)CC2c2cc(C(F)(F)F)cc(C(F)(F)F)c2)cc1` (stereo not drawn): the GI50 in the assay with LOX IMVI melanoma is 5.76 µM; with A549 NSCLC, 3.36 µM; with HOP-62 NSCLC it was 6.53 µM; in the assay on UACC-257 melanoma it was 2580 nM; in the assay on K-562 leukemia it was 4980 nM; in the assay on HL-60(TB) leukemia it was 3890 nM. Besides, the results for the GI50 in the assay with HOP-92 NSCLC and in the assay with NCI-H226 lung were 12.9 µM and 7.21 µM, respectively. Moreover, the TGI in the assay on LOX IMVI melanoma is 19.1 µM; in the assay with A549 NSCLC, 13.5 µM; in the assay on HOP-62 NSCLC, 22.4 µM; in the assay with UACC-257 melanoma, 7.18 µM; with K-562 leukemia, greater than 100 µM; in the assay on HL-60(TB) leukemia, greater than 100 µM. The TGI with HOP-92 NSCLC worked out at 29.3 µM; in the assay with NCI-H226 lung, 21.8 µM.
Turning to `O=c1cc(-c2ccccc2)oc2cc(OC/C(=N/O)c3ccccc3)ccc12`, the GI50 was 30.5 µM in the assay with LOX IMVI melanoma; 31.7 µM in the assay on A549 NSCLC; 22.4 µM with HOP-62 NSCLC; greater than 50000 nM in the assay on UACC-257 melanoma; 36500 nM in the assay with K-562 leukemia; greater than 50000 nM with HL-60(TB) leukemia. Moreover, the GI50 in the assay with HOP-92 NSCLC is 13.8 µM; with NCI-H226 lung, 23.5 µM. Moreover, the TGI in the assay with LOX IMVI melanoma, with A549 NSCLC, in the assay on HOP-62 NSCLC, in the assay with UACC-257 melanoma, in the assay on K-562 leukemia and in the assay on HL-60(TB) leukemia was greater than 50 µM each time. The TGI in the assay with HOP-92 NSCLC and with NCI-H226 lung was greater than 50 µM each time.
For the molecule `CCCCCCCC[C@@H](O)CC(=O)N[C@@H](CC(N)=O)C(=O)N[C@@H](CCC(N)=O)C(=O)N[C@@H](CC(=O)c1cc(C)cc(O)c1C(=O)c1c(O)cccc1O)CC(C)C`, the GI50 in the assay on LOX IMVI melanoma was 1.32 µM; in the assay on A549 NSCLC, 5.31 µM; in the assay with HOP-62 NSCLC, 0.86 µM; with UACC-257 melanoma, 450 nM; in the assay on K-562 leukemia, 408 nM; with HL-60(TB) leukemia it was 1890 nM. The values for the GI50 with HOP-92 NSCLC and in the assay on NCI-H226 lung were 0.201 µM and 0.237 µM, respectively. For the same molecule, the TGI in the assay with LOX IMVI melanoma was 3.9 µM; with A549 NSCLC it was greater than 100 µM; in the assay on HOP-62 NSCLC, 4.92 µM; in the assay on UACC-257 melanoma it was 4.68 µM; in the assay on K-562 leukemia, greater than 100 µM; in the assay with HL-60(TB) leukemia it was greater than 100 µM. Besides, the TGI in the assay with HOP-92 NSCLC came out at 0.939 µM; in the assay on NCI-H226 lung, 0.746 µM.
As to `C[N+]1=C(/C=C/c2ccc(O)c3ncccc23)C(C)(C)c2ccccc21`, the GI50 was 2.32 µM with LOX IMVI melanoma; 2.96 µM in the assay on A549 NSCLC; 3.44 µM in the assay on HOP-62 NSCLC; 3810 nM in the assay with UACC-257 melanoma; 2320 nM with K-562 leukemia; 2730 nM in the assay on HL-60(TB) leukemia. Moreover, the values for the GI50 in the assay with HOP-92 NSCLC and in the assay on NCI-H226 lung were 2.22 µM and 3.26 µM, respectively. In addition, the TGI in the assay with LOX IMVI melanoma is 5.74 µM; with A549 NSCLC it was 13.4 µM; in the assay with HOP-62 NSCLC it was 14.5 µM; in the assay on UACC-257 melanoma, 13.5 µM; in the assay with K-562 leukemia, greater than 100 µM; in the assay on HL-60(TB) leukemia, 8.04 µM. Also, the TGI worked out at 7.67 µM in the assay on HOP-92 NSCLC and 12.9 µM with NCI-H226 lung.
As to `Cc1c(C(=O)C/C(=N/NC(=O)C[N+](C)(C)C)C(=O)Nc2ccc(Cl)cc2)[n+](=O)c2ccccc2n1O`, the TGI in the assay with LOX IMVI melanoma, in the assay on A549 NSCLC, with HOP-62 NSCLC, with UACC-257 melanoma, with K-562 leukemia and with HL-60(TB) leukemia was greater than 100 µM throughout. For the same molecule, the TGI with HOP-92 NSCLC and with NCI-H226 lung was greater than 100 µM in each case.
